Experimental data from the supplement of paper PMC11451515.

System: SEM cells
Assay: cell viability relative to DMSO control; higher = less cytotoxic
Conditions: 48 h
Procedure, shortened: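 Library compounds in DMSO were pin-dosed into 1536-well plates (5 μl) holding NOMO1 or SEM (500 cells/well) or P12-Ichikawa (1000 cells/well) leukemia cells, across an 11-point threefold series of 47 μM to 0.79 nM. Each cell line had been adapted for at least four passages in each medium. CellTiter-Glo One luminescence was read after 48 h at 37°C. Viability is the per-plate percentage relative to DMSO wells, with cell-free wells as background.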

[1] = HPLM + 10% dialyzed FBS, 0.000781 µM
[2] = HPLM + 10% dialyzed FBS, 0.00234 µM
[3] = HPLM + 10% dialyzed FBS, 0.00702 µM
[4] = HPLM + 10% dialyzed FBS, 0.0211 µM
[5] = HPLM + 10% dialyzed FBS, 0.0632 µM
[6] = HPLM + 10% dialyzed FBS, 0.19 µM
[7] = HPLM + 10% dialyzed FBS, 0.569 µM
[8] = HPLM + 10% dialyzed FBS, 1.71 µM
[9] = HPLM + 10% dialyzed FBS, 5.12 µM
[10] = HPLM + 10% dialyzed FBS, 15.4 µM
[11] = HPLM + 10% dialyzed FBS, 46.1 µM
[12] = RPMI 5 mM glucose + 10% FBS, 0.000781 µM
[13] = RPMI 5 mM glucose + 10% FBS, 0.00234 µM
[14] = RPMI 5 mM glucose + 10% FBS, 0.00702 µM
[15] = RPMI 5 mM glucose + 10% FBS, 0.0211 µM
[16] = RPMI 5 mM glucose + 10% FBS, 0.0632 µM
[17] = RPMI 5 mM glucose + 10% FBS, 0.19 µM
[18] = RPMI 5 mM glucose + 10% FBS, 0.569 µM
[19] = RPMI 5 mM glucose + 10% FBS, 1.71 µM
[20] = RPMI 5 mM glucose + 10% FBS, 5.12 µM
[21] = RPMI 5 mM glucose + 10% FBS, 15.4 µM
[22] = RPMI 5 mM glucose + 10% FBS, 46.1 µM
[23] = RPMI 5 mM glucose + 10% dialyzed FBS, 0.000781 µM
[24] = RPMI 5 mM glucose + 10% dialyzed FBS, 0.00234 µM
[25] = RPMI 5 mM glucose + 10% dialyzed FBS, 0.00702 µM
[26] = RPMI 5 mM glucose + 10% dialyzed FBS, 0.0211 µM
[27] = RPMI 5 mM glucose + 10% dialyzed FBS, 0.0632 µM
[28] = RPMI 5 mM glucose + 10% dialyzed FBS, 0.19 µM
[29] = RPMI 5 mM glucose + 10% dialyzed FBS, 0.569 µM
[30] = RPMI 5 mM glucose + 10% dialyzed FBS, 1.71 µM
[31] = RPMI 5 mM glucose + 10% dialyzed FBS, 5.12 µM
[32] = RPMI 5 mM glucose + 10% dialyzed FBS, 15.4 µM
[33] = RPMI 5 mM glucose + 10% dialyzed FBS, 46.1 µM

| SMILES | cell viability [1] [%] | cell viability [2] [%] | cell viability [3] [%] | cell viability [4] [%] | cell viability [5] [%] | cell viability [6] [%] | cell viability [7] [%] | cell viability [8] [%] | cell viability [9] [%] | cell viability [10] [%] | cell viability [11] [%] | cell viability [12] [%] | cell viability [13] [%] | cell viability [14] [%] | cell viability [15] [%] | cell viability [16] [%] | cell viability [17] [%] | cell viability [18] [%] | cell viability [19] [%] | cell viability [20] [%] | cell viability [21] [%] | cell viability [22] [%] | cell viability [23] [%] | cell viability [24] [%] | cell viability [25] [%] | cell viability [26] [%] | cell viability [27] [%] | cell viability [28] [%] | cell viability [29] [%] | cell viability [30] [%] | cell viability [31] [%] | cell viability [32] [%] | cell viability [33] [%] |
| --- | --- | --- | --- | --- | --- | --- | --- | --- | --- | --- | --- | --- | --- | --- | --- | --- | --- | --- | --- | --- | --- | --- | --- | --- | --- | --- | --- | --- | --- | --- | --- | --- | --- |
| CC(=O)O[C@@]1(CC[C@H]2[C@@H]3\C=C(C)/C4=C/C(=O)CC[C@]4(C)[C@H]3CC[C@]12C)C(C)=O | 79.1 | 80 | 82 | 82.7 | 105 | 99.4 | 95.8 | 99.2 | 108 | 98.4 | 104 | 89.3 | 83.8 | 86.7 | 97.6 | 93.5 | 101 | 100 | 104 | 95 | 106 | 99.7 | 96.5 | 96.7 | 104 | 109 | 101 | 100 | 107 | 115 | 96.2 | 108 | 81.7 |
| O=C(O)c1ccc(-n2nc(-c3ccccc3O)nc2-c2ccccc2O)cc1 | 86.4 | 93 | 85.3 | 92 | 90.9 | 94.6 | 96.4 | 98 | 101 | 82.1 | 43 | 80.7 | 76.6 | 86.7 | 86.8 | 100 | 96.9 | 93.3 | 93.7 | 108 | 66 | 24.9 | 77.6 | 76 | 91 | 98.1 | 95.5 | 108 | 102 | 102 | 99.1 | 58.8 | 19.4 |
| NC(CO)(CO)CCc1ccc(Sc2cccc(OCc3ccccc3)c2)cc1Cl | 89.6 | 95.8 | 95.2 | 56.6 | 99.1 | 121 | 6.82 | 72.9 | 103 | 53.9 | 6.98 | 82.7 | 99 | 94.9 | 49.6 | 104 | 114 | 7.12 | 67.1 | 91.7 | 34.3 | 7.48 | 80.3 | 105 | 99.6 | 85.2 | 111 | 124 | 8.44 | 60.7 | 105 | 45.6 | 13.2 |
| CC\1=C(C(=O)N(\C=C1)C2=CC=C(C=C2)C3=NC=CO3)/C4=CC5=CN=C(N)N=C5C=C4 | 96.2 | 95 | 109 | 99.8 | 100 | 103 | 76.2 | 84 | 40.8 | 36 | 27 | 87.3 | 115 | 127 | 121 | 108 | 111 | 97.4 | 101 | 38.5 | 29.5 | 21.3 | 90 | 104 | 118 | 102 | 97.1 | 97.4 | 68.9 | 72.1 | 26.1 | 20.4 | 19.1 |
| CC1=CC=CC=C1CN2C(=O)C/3=C(/CCN(CC4=CC=CC=C4)C3)N\5CC\N=C25 | 113 | 121 | 125 | 115 | 117 | 120 | 115 | 110 | 94 | 25.3 | 19.6 | 129 | 119 | 114 | 101 | 114 | 109 | 97.1 | 95.9 | 50.9 | 13.2 | 9.39 | 127 | 121 | 119 | 119 | 141 | 119 | 136 | 133 | 58.4 | 19.6 | 19.8 |
| O=C(/C=C/c1c(C(=O)[O-])[nH]c2cc(Cl)cc(Cl)c12)Nc1ccccc1 | 89.9 | 120 | 122 | 122 | 127 | 114 | 123 | 132 | 124 | 115 | 73.1 | 110 | 113 | 106 | 102 | 118 | 112 | 121 | 122 | 129 | 118 | 65.1 | 95.9 | 103 | 110 | 119 | 104 | 125 | 101 | 121 | 128 | 118 | 60 |
| OCc1ccc(-c2nn(Cc3ccccc3)c3ccccc23)o1 | 115 | 128 | 124 | 111 | 113 | 113 | 117 | 38.1 | 96.1 | 44.6 | 19.3 | 116 | 110 | 126 | 100 | 119 | 107 | 98.1 | 18.2 | 80.9 | 37.4 | 11.2 |  |  |  |  |  |  |  |  |  |  |  |
